# Test results taken from paper PMC12304285 (British Journal of Cancer, 2025).
# Where “and” joins values, the source holds several entries; their conditions need not be identical. Equal entries are not always repeated. Entries after “also recorded” stand apart in the source; their conditions may differ. Where two headings read alike, the source gives them in different places.
# Columns and labels:
# [1] = system: PBMCs collected from patients; assay: iMRM-MS of DDR proteins in PBMCs collected from patients on treatment; assay type: in vivo, human; conditions: doses up to 40 mg
# Experimental: Prior to assessing clinical trial samples, PBMCs from healthy volunteers were treated ex vivo to determine biomarkers modulated by AZD7648. […] Samples were pooled and analysed by iMRM-MS. During the clinical trial, patient blood samples were collected during cycle 1 (day 1 and day 8), cycle 2 (day 1) and at the end of treatment and were analysed by iMRM-MS [20–23]. On-treatment tumour biopsies were optional in the trial protocol and none were collected, so tumour PD studies were not conducted.
# Preparation of Clinical PBMCs and iMRM analysis
# Blood from patients was drawn into 8 mL Vacutainer CPT tubes (BD) before treatment, 2-8h post dose at C1D1, C1D8, C2D1 and at discontinuation.
# After inverting the tube 8 -10 times, it was centrifuged and the PBMC layer transferred into a new tube, washed once with ice cold PBS, centrifuged again to obtain a pellet which was then […]
# PBMC pellets were lysed with 8M Urea supplemented with proteases and phosphatases inhibitors, sonicated, clarified by centrifugation and quantified with Micro -BCA assay (Thermo - […]
# The samples were quality checked by SDS -PAGE followed by silver staining to evaluate the complexity of the obtained protein extract and assess the presence of most common blood contaminants (hemoglobulin and albumin). […]
# [2] = system: patients with advanced cancer
# Experimental: A single dose was administered during Cycle 0 and was followed by a drug washout period lasting 3–7 days. […] If either of these conditions was not met, the cohort would be expanded to a minimum of 3, and up to 6, patients in all subsequent cohorts. A Bayesian adaptive design, using all of the available data and considering the pharmacokinetics (PK) from a minimum of 2 or 3 patients enrolled into each dose cohort, was used from this point. Dose escalation was scheduled to be stopped at the maximum tolerated dose (MTD) (defined as 25% of patients in a cohort experiencing a dose-limiting toxicity [DLT] with the required precision [ratio of upper and lower 95% credible limits <5.0]), the maximum feasible dose (MFD) or the recommended Phase II dose (RP2D). Intra-patient dose escalation was permitted as long as predefined criteria were met, including that the planned next higher dose had to be declared tolerated by the SRC based on assessment of 2–6 evaluable patients.
# The starting dose of PLD was 40 mg/m^2 intravenously once every 28 days for a maximum of 6 cycles. PLD dose could be escalated to 50 mg/m^2 or de-escalated to 30 mg/m^2 every 28 days with agreement from the SRC. […] Dose escalation was scheduled to be stopped at the MTD (defined as 30% of patients in a cohort experiencing a DLT with the required precision [ratio of upper and lower 95% credible limits <5.0]). Approximately 30 evaluable patients across five cohorts (n = 3–6 per cohort) were originally planned to provide an estimate of MTD.
# Definitions of dose-limiting toxicity
# DLTs were evaluated during Cycle 0 and Cycle 1 of treatment. Toxicity was graded according to the National Cancer Institute CTCAE v5.0.
# A DLT was defined as an AE that occurs from the first dose of study treatment up to and including Cycle 1, Day 28 (the DLT assessment period) that is assessed as unrelated to the disease, intercurrent illness, or concomitant medications and that, despite optimal therapeutic interventions, meets any of the following criteria:
# Haematological Toxicities:
# • Grade 4 neutropenia lasting >4 days.
# • Grade 4 thrombocytopenia.
# • Grade 3 neutropenia (ANC ≥500 to <1000 cells/mm3) of any duration accompanied by fever ≥38.5 °C and/or systemic infection.
# • Grade 3 thrombocytopenia (25,000 to <50,000/mm3) with bleeding
# Non-haematological toxicities:
# • Confirmed laboratory abnormalities
# • Nausea or vomiting for more than three consecutive days despite administration of maximal anti-emetic therapy
# • Diarrhoea for more than three consecutive days despite administration of maximal anti- […]
# • QTc prolongation >500 milliseconds or QTcF prolongation from baseline by 60 milliseconds confirmed on at least two separate ECGs
# • Any other toxicity that is greater than at baseline AND is clinically significant and/or […]
# AND is judged to be a DLT by the SRC
# • Any treatment-related event, including significant dose reductions, omissions or delays, judged to be a DLT by the SRC. Examples may include CTCAE Grade 2 toxicities that are clinically significant and/or unacceptable according to the investigator, toxicities that […]
# the administration of study treatment in the subsequent cycle by ≥7 consecutive days DLT will not include the following:
# • Transient isolated laboratory abnormalities which are not considered clinically significant and resolve to baseline within 72 hours without any intervention […]
# • Toxicity unrelated to treatment e.g., related to the underlying disease or disease-related
structure (smiles),measurement,setting,value
"Cc1cc2ncnn2cc1Nc1ncc2c(n1)n(C1CCOCC1)c(=O)n2C [AZD7648, 7-Methyl-2-[(7-methyl[1,2,4]triazolo[1,5-a]pyridin-6-yl)amino]-9-(tetrahydro-2H-pyran-4-yl)-7,9-dihydro-8H-purin-8-one]",activity on DDR protein markers in patient PBMCs,[1],did not show any activity; also recorded: not biologically active
same,Any AE leading to death,[2]; 5 mg BID (n = 1),0 n (%)
same,Any AZD7648-related AE leading to death,[2]; 5 mg BID (n = 1),0 n (%)
same,Any AE leading to death,[2]; 5 mg QD (n = 1),0 n (%)
same,Any AZD7648-related AE leading to death,[2]; 5 mg QD (n = 1),0 n (%)
same,Any AE leading to death,[2]; 10 mg BID (n = 1),0 n (%)
same,Any AZD7648-related AE leading to death,[2]; 10 mg BID (n = 1),0 n (%)
same,Any AE leading to death,[2]; 20 mg BID (n = 1),0 n (%)
same,Any AZD7648-related AE leading to death,[2]; 20 mg BID (n = 1),0 n (%)
same,Any AE leading to death,[2]; 40 mg BID (n=3),0 n (%)
same,Any AZD7648-related AE leading to death,[2]; 40 mg BID (n=3),0 n (%)
same,Any AE leading to death,[2]; 80 mg BID (n = 4),1 (25.0) n (%)
same,Any AZD7648-related AE leading to death,[2]; 80 mg BID (n = 4),0 n (%)
same,Any AE leading to death,[2]; 160 mg BID (n=3),0 n (%)
same,Any AZD7648-related AE leading to death,[2]; 160 mg BID (n=3),0 n (%)
same,TEAE Anaemia,[2]; Any grade,4 (28.6) n (%)
same,TEAE Diarrhoea,[2]; Any grade,4 (28.6) n (%)
same,TEAE Nausea,[2]; Any grade,4 (28.6) n (%)
same,TEAE Neutropenia,[2]; Any grade,2 (14.3) n (%)
same,TEAE Urinary tract infection,[2]; Any grade,2 (14.3) n (%)
same,TEAE Vomiting,[2]; Any grade,4 (28.6) n (%)
same,"Any treatment-related grade 3/4 AE, related to AZD7648",[2]; all dose levels,4 (28.6) n (%)
same,Death,[2]; all dose levels,4 (28.6) n (%)
same,patients with nausea,[2]; all dose levels,28.6% and ~ 30%
same,patients with neutropenia,[2]; all dose levels,14.3%
same,patients with vomiting,[2]; all dose levels,28.6% and ~ 30%
same,Any AE,"[2]; human, in vivo",12 (85.7) n (%)
same,Any DLT,"[2]; human, in vivo",1 (7.1) n (%)
same,Any SAE,"[2]; human, in vivo",5 (35.7) n (%)
same,TEAE Anaemia,"[2]; human, in vivo",1 (7.1) n (%)
same,TEAE Diarrhoea,"[2]; human, in vivo",1 (7.1) n (%)
same,TEAE Nausea,"[2]; human, in vivo",0 n (%)
same,TEAE Neutropenia,"[2]; human, in vivo",1 (7.1) n (%)
same,TEAE Urinary tract infection,"[2]; human, in vivo",0 n (%)
same,TEAE Vomiting,"[2]; human, in vivo",0 n (%)
same,patients with gastrointestinal disorders,"[2]; human, in vivo",64.3%
same,patients who experienced TEAEs,"[2]; human, in vivo, 2.9 months",85.7%
same,patients with abdominal pain,"[2]; human, in vivo, 2.9 months",~ 20%
same,patients with decreased appetite,"[2]; human, in vivo, 2.9 months",~ 20%
same,patients with fatigue,"[2]; human, in vivo, 2.9 months",~ 20%
same,maximum tolerated dose (MTD),"[2]; monotherapy, escalation paused at 160 mg BID continuous dosing",an MTD could not be declared
same,DLT reported (nature),"[2]; one patient, AZD7648 160 mg BID",grade 4 increased alanine aminotransferase (ALT) and aspartate aminotransferase (AST)
